Consider 13 molecules from patent US20100152188A1, “Novel Heterocyclic Compounds” (priority 2005, published 2010).

Assay [1] relates to HDAC. The experiment in a line: HDAC inhibition. To be noted: for HDAC Inhibition 1 μM: compound at 1 μM; for HDAC Inhibition 10 μM: compound at 10 μM. It is filed as biochemical.
Assay [2] has as its system NCIH460. As to the kind of experiment: Anti-cancer screen (MTT), NCIH460. Type of assay: cell-based. To be noted: Homo sapiens, NCI-H460, 48 hours with compound, tested at 0.01-100 µM. The gist of the method:
(§1)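 Seed cells at 5000 per well and let them attach for 24 h; add compound at five final concentrations from 0.01 to 100 µM; incubate 48 h; add MTT for 3 h, dissolve formazan in DMSO and read at 570 nm. GI50, TGI and LC50 follow from percent growth relative to T0 and untreated wells.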

Assay [3] concerns MDAMB-231/U 251. As to the kind of experiment: Anti-cancer screen (MTT), MDAMB-231/U 251. Type of assay: cell-based. To be noted: for CC50: 48 h, read-out: MDAMB-231/U 251 LC50; for GI50 / IC (TGI): 48 hours with compound, MTT, tested at 0.01-100 µM. The gist of the method:
as §1

Assay [4] concerns NCIH460, HCT116, MDAMB-231/U 251. As to the kind of experiment: Anti-cancer screen, mean GI50 over the cell lines. Type of assay: cell-based. To be noted: in µM. The procedure, abridged: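 Growth was scored by MTT absorbance at 570 nm relative to control wells and a pre-treatment T0 reading. Compounds were tested at five final concentrations (0.01–100 µM, triplicate) for 48 h on NCIH460, HCT116 and U251 cells, each plated at 5000 cells/well 24 h before dosing.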

Assay [5] concerns HCT116. As to the kind of experiment: Anti-cancer screen (MTT), HCT116. Type of assay: cell-based. To be noted: Homo sapiens, HCT-116, 48 hours with compound, tested at 0.01-100 µM. The procedure, abridged:
as §1

As usually defined, the GI50 is the concentration giving 50% growth inhibition. As usually defined, the LC50 is the concentration that kills 50% of the test population. `Nc1ccccc1NC(=O)Cc1csc(NC(=O)OCc2nccs2)n1` [Example 23, 1,3-Thiazol-2-ylmethyl(4-{2-[(2-aminophenyl)amino]-2-oxoethyl}-1,3-thiazol-2-yl)carbamate]: in assay [1], the “HDAC Inhibition 1 μM” value is on record as 11.34 and the “HDAC Inhibition 10 μM” value amounted to 5.18. In addition, in assay [2], the GI50 was above 100 µM, the IC (TGI) is above 100 µM and the 50% lethal concentration (LC50) was above 100 µM. For the same molecule, in assay [3], the CC50 was above 100 µM, the GI50 amounted to 31 µM and the IC (TGI) is above 100 µM. The “Mean GI50” value in assay [4] was above 100. Moreover, in assay [5], the 50% growth inhibitory concentration (GI50) is above 100 µM, the IC (TGI) was above 100 µM and the LC50 (concentration giving 50% net cell kill relative to T0) is above 100 µM.

With `Nc1ccccc1NC(=O)Cc1csc(NC(=O)OCc2ccncc2)n1` [Example 24, Pyridin-4-ylmethyl(4-{2-[(2-aminophenyl)amino]-2-oxoethyl}-1,3-thiazol-2-yl)carbamate], in assay [1], the “HDAC Inhibition 1 μM” value was determined as 1.34 and the “HDAC Inhibition 10 μM” value was 3.17. Moreover, in assay [2], the 50% growth inhibitory concentration (GI50) is above 100 µM, the IC (TGI) was above 100 µM and the 50% lethal concentration (LC50) was above 100 µM. Further, in assay [3], the CC50 was above 100 µM, the concentration for 50% growth inhibition (GI50) was above 100 µM and the IC (TGI) was above 100 µM. Besides, in assay [4], the “Mean GI50” value is on record as above 100. Besides, in assay [5], the GI50 is above 100 µM, the IC (TGI) is above 100 µM and the LC50 (concentration giving 50% net cell kill relative to T0) was above 100 µM.

Consider `O=C(Cc1csc(NC(=O)OCc2ccncc2)n1)NOCc1ccccc1` [Example 25, Pyridin-4-ylmethyl(4-{2-[(benzyloxy)amino]-2-oxoethyl}-1,3-thiazol-2-yl)carbamate], for which, in assay [1], the “HDAC Inhibition 1 μM” value is listed as −0.29 and the “HDAC Inhibition 10 μM” value was 6.62. Also, in assay [2], the GI50 came out at 92 µM, the IC (TGI) was above 100 µM and the median lethal concentration (LC50) was above 100 µM. Moreover, in assay [3], the CC50 was above 100 µM, the GI50 was determined as 85 µM and the IC (TGI) is above 100 µM. Besides, the “Mean GI50” value in assay [4] was determined as 80.67. In addition, in assay [5], the 50% growth inhibitory concentration (GI50) stood at 65 µM, the IC (TGI) is above 100 µM and the LC50 (concentration giving 50% net cell kill relative to T0) was above 100 µM.

The term IC50 denotes the concentration needed to halve the response being measured. High values mean lower potency, low ones higher potency. Take `O=C(NCc1ccc(C(=O)NO)cc1)OCc1ccsc1` [Example 27, 3-Thienylmethyl{4-[(hydroxyamino)carbonyl]benzyl}carbamate]: in assay [1], the IC50 turned out to be 0.58 µM, the “HDAC Inhibition 1 μM” value is 67.65 and the “HDAC Inhibition 10 μM” value is 81.85. Also, in assay [2], the GI50 turned out to be 34 µM, the IC (TGI) is 64 µM and the LC50 worked out at 100 µM. In assay [3], the CC50 is above 100 µM, the concentration for 50% growth inhibition (GI50) was above 100 µM and the IC (TGI) was above 100 µM. Besides, the “Mean GI50” value in assay [4] was 24.9. Moreover, in assay [5], the GI50 worked out at 7 µM, the IC (TGI) is 21 µM and the LC50 (concentration giving 50% net cell kill relative to T0) stood at 72 µM.

In the case of `O=C(NCc1ccc(C(=O)NO)cc1)OCc1cccs1` [Example 28, 2-Thienylmethyl{4-[(hydroxyamino)carbonyl]benzyl}carbamate], in assay [1], the IC50 turned out to be 0.123 µM, the “HDAC Inhibition 1 μM” value was 50.8 and the “HDAC Inhibition 10 μM” value is 63.3. Moreover, in assay [2], the GI50 came out at 30 µM, the IC (TGI) came out at 51 µM and the LC50 is above 100 µM. In assay [3], the CC50 amounted to 70 µM, the concentration for 50% growth inhibition (GI50) was 5 µM and the IC (TGI) was determined as 30 µM. Further, the “Mean GI50” value in assay [4] was 13. Moreover, in assay [5], the GI50 was determined as 5 µM, the IC (TGI) was determined as 15 µM and the LC50 (concentration giving 50% net cell kill relative to T0) amounted to 62 µM.

With `O=C(NCc1ccc(C(=O)NO)cc1)OCc1nc2ccccc2s1` [Example 30, 1,3-Benzothiazol-2-ylmethyl{4-[(hydroxyamino)carbonyl]benzyl}carbamate], in assay [1], the IC50 turned out to be 0.14 µM, the “HDAC Inhibition 1 μM” value is reported as 84 and the “HDAC Inhibition 10 μM” value came out at 84.6. In assay [2], the GI50 was 0.02 µM, the IC (TGI) is 0.05 µM and the LC50 was 73 µM. In addition, in assay [3], the CC50 was above 100 µM, the 50% growth inhibitory concentration (GI50) is 0.78 µM and the IC (TGI) was above 100 µM. Moreover, in assay [4], the “Mean GI50” value is reported as 0.3. In assay [5], the GI50 amounted to 0.23 µM, the IC (TGI) came out at 7 µM and the LC50 (concentration giving 50% net cell kill relative to T0) was 61 µM.

As for `O=C(NCc1ccc(C(=O)NO)cc1)OCc1nccs1` [Example 31, 1,3-Thiazol-2-ylmethyl{4-[(hydroxyamino)carbonyl]benzyl}carbamate], in assay [1], the IC50 was found to be 0.13 µM, the “HDAC Inhibition 1 μM” value came out at 82.6 and the “HDAC Inhibition 10 μM” value was found to be 87.4. In addition, in assay [2], the GI50 amounted to 0.02 µM, the IC (TGI) was 0.9 µM and the LC50 was 92 µM. Further, in assay [3], the CC50 was above 100 µM, the 50% growth inhibitory concentration (GI50) turned out to be 32 µM and the IC (TGI) was above 100 µM. Further, the “Mean GI50” value in assay [4] is 10.7. Moreover, in assay [5], the GI50 was determined as 0.02 µM, the IC (TGI) is 0.97 µM and the LC50 (concentration giving 50% net cell kill relative to T0) turned out to be 39 µM.

In the case of `O=C(NCc1ccc(C(=O)NO)cc1)OCC1COc2ccccc2O1` (centres unmarked) [Example 32, 2,3-Dihydro-1,4-benzodioxin-2-ylmethyl {4-[(hydroxyamino)carbonyl]benzyl}carbamate], in assay [1], the “HDAC Inhibition 1 μM” value came to 78.12 and the “HDAC Inhibition 10 μM” value was found to be 92.67. Besides, in assay [2], the GI50 amounted to 5 µM, the IC (TGI) is 42 µM and the LC50 came out at 95 µM. In assay [3], the CC50 stood at 80 µM, the GI50 was 11 µM and the IC (TGI) came out at 45 µM. In assay [4], the “Mean GI50” value was 7. In addition, in assay [5], the 50% growth inhibitory concentration (GI50) came out at 5 µM, the IC (TGI) amounted to 25 µM and the LC50 (concentration giving 50% net cell kill relative to T0) is above 100 µM.

Take `O=C(NCc1ccc(C(=O)NO)cc1)OCc1nc2ccccc2[nH]1` [Example 33, 1H-Benzimidazol-2-ylmethyl{4-[(hydroxyamino)carbonyl]benzyl}carbamate]: in assay [1], 0.25 µM corresponded to half-maximal inhibition (IC50), the “HDAC Inhibition 1 μM” value is given as 82.77 and the “HDAC Inhibition 10 μM” value was determined as 92.11. For the same molecule, in assay [2], the 50% growth inhibitory concentration (GI50) was 1 µM, the IC (TGI) came out at 68 µM and the LC50 was above 100 µM. In assay [3], the CC50 is 60 µM, the concentration for 50% growth inhibition (GI50) was 3 µM and the IC (TGI) is 8 µM. The “Mean GI50” value in assay [4] was found to be 2.8. For the same molecule, in assay [5], the concentration for 50% growth inhibition (GI50) worked out at 4.5 µM, the IC (TGI) was 20 µM and the LC50 (concentration giving 50% net cell kill relative to T0) is above 100 µM.

On to `O=C(NCc1ccc(C(=O)NO)cc1)OCn1nnc2ccccc21` [Example 34, 1H-1,2,3-Benzotriazol-1-ylmethyl{4-[(hydroxyamino)carbonyl]benzyl}carbamate], for which, in assay [1], the “HDAC Inhibition 1 μM” value was 62.1 and the “HDAC Inhibition 10 μM” value was determined as 98.6. In addition, in assay [2], the GI50 was 58 µM, the IC (TGI) is above 100 µM and the LC50 is above 100 µM. In assay [3], the CC50 was above 100 µM, the GI50 stood at 30 µM and the IC (TGI) is above 100 µM. Besides, the “Mean GI50” value in assay [4] is on record as 49.3. In assay [5], the concentration for 50% growth inhibition (GI50) was found to be 60 µM, the IC (TGI) is above 100 µM and the LC50 (concentration giving 50% net cell kill relative to T0) is above 100 µM.

On to `O=C(NCc1ccc(C(=O)NO)cc1)OCc1ccnc2ccccc12` [Example 37, Quinolin-4-ylmethyl{4-[(hydroxyamino)carbonyl]benzyl}carbamate], for which, in assay [1], the “HDAC Inhibition 1 μM” value was found to be 67.04 and the “HDAC Inhibition 10 μM” value is 85.01. In addition, in assay [2], the GI50 came to 30 µM, the IC (TGI) turned out to be 58 µM and the LC50 turned out to be 90 µM. Further, in assay [3], the CC50 is 95 µM, the concentration for 50% growth inhibition (GI50) is 4 µM and the IC (TGI) worked out at 18 µM. In addition, the “Mean GI50” value in assay [4] came out at 13.3. In assay [5], the 50% growth inhibitory concentration (GI50) worked out at 6 µM, the IC (TGI) was determined as 20 µM and the LC50 (concentration giving 50% net cell kill relative to T0) was found to be 65 µM.

On to `CNC(=O)c1ccc(CNC(=O)OCc2cccs2)cc1` [Example 40, 2-Thienylmethyl{4-[(methylamino)carbonyl]benzyl}carbamate], for which, in assay [1], the “HDAC Inhibition 1 μM” value is on record as −1.9 and the “HDAC Inhibition 10 μM” value worked out at 8.6. Besides, in assay [2], the GI50 is above 100 µM, the IC (TGI) is above 100 µM and the LC50 is above 100 µM. Moreover, in assay [3], the CC50 was above 100 µM, the GI50 came out at 14 µM and the IC (TGI) is above 100 µM. The “Mean GI50” value in assay [4] was above 100. Further, in assay [5], the GI50 worked out at 100 µM, the IC (TGI) is above 100 µM and the LC50 (concentration giving 50% net cell kill relative to T0) is above 100 µM.

Regarding `CONC(=O)c1ccc(CNC(=O)OCc2cccs2)cc1` [Example 43, 2-Thienylmethyl{4-[(methoxyamino)carbonyl]benzyl}carbamate], in assay [1], the “HDAC Inhibition 1 μM” value came to 1.9 and the “HDAC Inhibition 10 μM” value was found to be 8.10. In assay [2], the GI50 is above 100 µM, the IC (TGI) is above 100 µM and the LC50 was above 100 µM. Also, in assay [3], the CC50 was above 100 µM, the GI50 was above 100 µM and the IC (TGI) was above 100 µM. In assay [4], the “Mean GI50” value is above 100. In addition, in assay [5], the GI50 is above 100 µM, the IC (TGI) is above 100 µM and the LC50 (concentration giving 50% net cell kill relative to T0) was above 100 µM.
